# Measurements as given in patent US20250129104A1, “7H-PYRROLO[2,3-D]PYRIMIDINES AND PREPARATION AND USES THEREOF” (BioSplice Therapeutics, Inc., priority 2021, published 2025).
# Biological target: recombinant DYRK1A kinase (Homo sapiens (Human), UniProt Q13627)
# Assay: DYRK1A kinase assay (Ser/Thr 18 peptide Z-lyte FRET assay)
# Assay type: biochemical
# Conditions: DYRK1A kinase activity; 15 μM ATP, 1 h room temperature; method text calls the value IC50
# Method: Representative compounds were screened using the assay procedure for DYRK1A kinase activity as described below.
# Each compound was dissolved in DMSO as a 10 mM stock and used to prepare compound source plates. Serial dilution (1:3, 11-point dose-response curves from 10 μM to 0.00016 μM) and compound transfer was performed using the ECHO 550 (Labcyte, Sunnyvale, CA) into 1536-well black-walled round bottom plates (Corning).
# The DYRK1A kinase assay was run using the Ser/Thr 18 peptide Z-lyte assay kit according to manufacturer's instructions (Life Technologies—a Division of Thermo-Fisher). This is a non-radioactive assay using fluorescence resonance energy transfer (FRET) between coumarin and fluorescein to detect kinase activity which is represented as a ratio of coumarin emission/fluorescein emission.
# Briefly, recombinant DYRK1A kinase, ATP and Ser/Thr peptide 18 were prepared in 1× Kinase buffer to final concentrations of 0.25 μg/mL, 15 μM, and 4 μM respectively. The mixture was allowed to incubate with the representative compounds for one hour at room temperature. All reactions were performed in duplicate. Unphosphorylated (“0% Control”) and phosphorylated (“100% control”) forms of Ser/Thr 18 served as control reactions. Additionally, an 11-point dose-response curve of Staurosporine (1 uM top) was run to serve as a positive compound control.
# After incubation, Development Reagent A was diluted in Development Buffer then added to the reaction and allowed to further incubate for one hour at room temperature. The plate was read at Ex 400 Em […] to detect the coumarin signal and Ex 400 Em 520 to measure the signal (EnVision Multilabel Plate Reader, PerkinElmer).
# The Emission ratio (Em) was calculated as a ratio of the coumarin (C) emission signal (at 445 nm)/Fluorescein (F) emission signal (at 520 nm). The percent phosphorylation was then calculated using the following formula: [1−((Em ratio×F100%)−C100%)/((C0%−C100%)+(Em ratio×(F100%−F0%)))]. Dose-response curves were generated, and inhibitory concentration (IC50) values were calculated using non-linear regression curve fit in the Dotmatics' Studies Software (Bishops Stortford, UK).
row,Molecule,EC50
1,"OCCO[C@H]1CC[C@@H](Nc2ncc3c(-c4ccc5nccnc5c4)c[nH]c3n2)CC1 [Compound 2229, 2-((cis-4-((5-(Quinoxalin-6-yl)-7H-pyrrolo[2,3-d]pyrimidin-2-yl)amino)cyclohexyl)oxy)ethan-1-ol]",2.6 nM
2,"COc1nc(N[C@H]2CC[C@@](C)(O)CC2)nc2[nH]cc(-c3ccc4nccn4c3)c12 [Compound 2233, cis-4-((5-(Imidazo[1,2-a]pyridin-6-yl)-4-methoxy-7H-pyrrolo[2,3-d]pyrimidin-2-yl)amino)-1-methylcyclohexan-1-ol]",1.6 nM
3,"COc1nc(N[C@H]2CC[C@@H](OC(F)F)CC2)nc2[nH]cc(-c3ccn4nccc4c3)c12 [Compound 2211, N-(cis-4-(Difluoromethoxy)cyclohexyl)-4-methoxy-5-(pyrazolo[1,5-a]pyridin-5-yl)-7H-pyrrolo[2,3-d]pyrimidin-2-amine]",126 nM
4,"COC[C@@H](C)Nc1nc(OC)c2c(-c3ccc4nnn(C)c4c3)c[nH]c2n1 [Compound 2194, (R)-4-Methoxy-N-(1-methoxypropan-2-yl)-5-(1-methyl-1H-benzo[d][1,2,3]triazol-6-yl)-7H-pyrrolo[2,3-d]pyrimidin-2-amine]",5.5 nM
5,"5-(1-(2,2-Difluoroethyl)-1H-benzo[d][1,2,3]triazol-6-yl)-N-(2-fluoro-2-methylpropyl)-4-methoxy-7H-pyrrolo[2,3-d]pyrimidin-2-amine [Compound 2292]",17.4 nM
6,"C[C@@H](Nc1ncc2c(-c3ccn4nccc4c3)c[nH]c2n1)C(F)(F)F [Compound 1128, (R)-5-(Pyrazolo[1,5-a]pyridin-5-yl)-N-(1,1,1-trifluoropropan-2-yl)-7H-pyrrolo[2,3-d]pyrimidin-2-amine]",2.4 nM
7,"CC(C)(F)CNc1ncc2c(-c3ccn4ncc(F)c4n3)c[nH]c2n1 [Compound 1678, N-(2-Fluoro-2-methylpropyl)-5-(3-fluoropyrazolo[1,5-a]pyrimidin-5-yl)-7H-pyrrolo[2,3-d]pyrimidin-2-amine]",21.1 nM
8,"O=C(c1cnn2ccc(-c3c[nH]c4nc(C5CCC5)ncc34)cc12)N1CCCCC1 [Compound 1205, (5-(2-Cyclobutyl-7H-pyrrolo[2,3-d]pyrimidin-5-yl)pyrazolo[1,5-a]pyridin-3-yl)(piperidin-1-yl)methanone]",259 nM
9,"COc1nc(N)nc2[nH]cc(-c3ccn4nccc4c3)c12 [Compound 3291, 4-methoxy-5-(pyrazolo[1,5-a]pyridin-5-yl)-7H-pyrrolo[2,3-d]pyrimidin-2-amine]",1.1 nM
10,"c1cnc2ccc(-c3c[nH]c4nc(Nc5ccncc5)ncc34)cc2c1 [Compound 1892, N-(pyridin-4-yl)-5-(quinolin-6-yl)-7H-pyrrolo[2,3-d]pyrimidin-2-amine]",0.8 nM
11,"c1cnc2ccc(-c3c[nH]c4nc(NC5CCOCC5)ncc34)cc2c1 [Compound 1890, 5-(Quinolin-6-yl)-N-(tetrahydro-2H-pyran-4-yl)-7H-pyrrolo[2,3-d]pyrimidin-2-amine]",6 nM
12,"CC(C)Cc1ncc2c(-c3ccc4nnn(C)c4c3)c[nH]c2n1 [Compound 810, 6-(2-Isobutyl-7H-pyrrolo[2,3-d]pyrimidin-5-yl)-1-methyl-1H-benzo[d][1,2,3]triazole]",66 nM
13,"CO[C@H]1C[C@@H](Nc2ncc3c(-c4ccc5ncccc5c4)c[nH]c3n2)C1 [Compound 2075, N-(cis-3-Methoxycyclobutyl)-5-(quinolin-6-yl)-7H-pyrrolo[2,3-d]pyrimidin-2-amine]",8 nM
14,"[2H]C([2H])([2H])Oc1nc(N[C@H]2CC[C@@H](OC)CC2)nc2[nH]cc(-c3ccc4nnn(C)c4c3)c12 [Compound 3115, 4-(Methoxy-d3)—N-(cis-4-methoxycyclohexyl)-5-(1-methyl-1H-benzo[d][1,2,3]triazol-6-yl)-7H-pyrrolo[2,3-d]pyrimidin-2-amine]",1.3 nM
15,"COc1nc(NC2CCC3(CC2)COC3)nc2[nH]cc(-c3ccn4nccc4c3)c12 [Compound 3326, 4-Methoxy-5-(pyrazolo[1,5-a]pyridin-5-yl)-N-(2-oxaspiro[3.5]nonan-7-yl)-7H-pyrrolo[2,3-d]pyrimidin-2-amine]",1.6 nM
16,"COc1nc(NC2CCC(F)(F)CC2)nc2[nH]cc(-c3ccc4nnn(C)c4c3)c12 [Compound 2284, N-(4,4-Difluorocyclohexyl)-4-methoxy-5-(1-methyl-1H-benzo[d][1,2,3]triazol-6-yl)-7H-pyrrolo[2,3-d]pyrimidin-2-amine]",83.9 nM
17,"C[C@]1(O)CC[C@H](Nc2ncc3c(-c4cc(F)c5nccn5c4)c[nH]c3n2)CC1 [Compound 2237, trans-4-((5-(8-Fluoroimidazo[1,2-a]pyridin-6-yl)-7H-pyrrolo[2,3-d]pyrimidin-2-yl)amino)-1-methylcyclohexan-1-ol]",7.9 nM
18,"5-(1-(2,2-Difluoroethyl)-1H-benzo[d][1,2,3]triazol-6-yl)-4-methoxy-N-(cis-4-(trifluoromethoxy)cyclohexyl)-7H-pyrrolo[2,3-d]pyrimidin-2-amine [Compound 2297]",458 nM
19,"N-(cis-4-(Methoxy-d3)cyclohexyl)-5-(pyrazolo[1,5-a]pyrimidin-5-yl)-7H-pyrrolo[2,3-d]pyrimidin-2-amine [Compound 2221]",3.6 nM
20,"CO[C@H]1CC[C@@H](Nc2ncc3c(-c4cc(F)c5nccn5c4)c[nH]c3n2)CC1 [Compound 216, 5-(8-Fluoroimidazo[1,2-a]pyridin-6-yl)-N-(cis-4-methoxycyclohexyl)-7H-pyrrolo[2,3-d]pyrimidin-2-amine]",14.9 nM
21,COC[C@@H](C)Nc1nc(OC)c2c(-c3cc(F)c4nccn4c3)c[nH]c2n1 [Compound 2184],69.9 nM
22,"Fc1cnc2ccc(-c3c[nH]c4nc(C5CC5)ncc34)cn12 [Compound 145, 2-Cyclopropyl-5-(3-fluoroimidazo[1,2-a]pyridin-6-yl)-7H-pyrrolo[2,3-d]pyrimidine]",94.3 nM

# Next, values leading:
row,EC50,Molecule
1,6 nM,"C[C@@H](Nc1ncc2c(-c3ccc4nccnc4c3)c[nH]c2n1)C(F)(F)F [Compound 1916, (R)-5-(Quinoxalin-6-yl)-N-(1,1,1-trifluoropropan-2-yl)-7H-pyrrolo[2,3-d]pyrimidin-2-amine]"
2,71.3 nM,"Cc1nc2cnc(-c3c[nH]c4ncncc34)cc2n1C(C)C [Compound 627, 1-Isopropyl-2-methyl-6-(7H-pyrrolo[2,3-d]pyrimidin-5-yl)-1H-imidazo[4,5-c]pyridine]"
3,0.2 nM,"COc1nc(N[C@H]2CC[C@](C)(O)CC2)nc2[nH]cc(-c3ccc4nnn(C)c4c3)c12 [Compound 3119, trans-4-((4-Methoxy-5-(1-methyl-1H-benzo[d][1,2,3]triazol-6-yl)-7H-pyrrolo[2,3-d]pyrimidin-2-yl)amino)-1-methylcyclohexan-1-ol]"
4,210 nM,"CNc1nc(N2CC3(CO)CCC2CC3)nc2[nH]cc(-c3ccn4nccc4n3)c12 [Compound 3459, (2-(4-(methylamino)-5-(pyrazolo[1,5-a]pyrimidin-5-yl)-7H-pyrrolo[2,3-d]pyrimidin-2-yl)-2-azabicyclo[2.2.2]octan-4-yl)methanol]"
5,2.2 nM,"FC(F)CO[C@H]1CC[C@@H](Nc2ncc3c(-c4ccc5nccn5n4)c[nH]c3n2)CC1 [Compound 2199, N-(cis-4-(2,2-Difluoroethoxy)cyclohexyl)-5-(imidazo[1,2-b]pyridazin-6-yl)-7H-pyrrolo[2,3-d]pyrimidin-2-amine]"
6,287 nM,"COc1nc(N[C@@H]2CCOC[C@H]2OC)nc2[nH]cc(-c3ccn4nccc4c3)c12 [Compound 2319, 4-Methoxy-N-((3S,4R)-3-methoxytetrahydro-2H-pyran-4-yl)-5-(pyrazolo [1,5-a]pyridin-5-yl)-7H-pyrrolo[2,3-d]pyrimidin-2-amine]"
7,9.9 nM,"COc1nc(NC2CCC(F)(F)CC2)nc2[nH]cc(-c3cnc4nccn4c3)c12 [Compound 2268, N-(4,4-Difluorocyclohexyl)-5-(imidazo[1,2-a]pyrimidin-6-yl)-4-methoxy-7H-pyrrolo[2,3-d]pyrimidin-2-amine]"
8,1.9 nM,"CO[C@H]1CC[C@H](Nc2ncc3c(-c4ccn5nccc5c4)c[nH]c3n2)CC1 [Compound 3277, N-(trans-4-Methoxycyclohexyl)-5-(pyrazolo[1,5-a]pyridin-5-yl)-7H-pyrrolo[2,3-d]pyrimidin-2-amine]"
9,1.9 nM,"CO[C@H]1C[C@@H](Nc2ncc3c(-c4ccc5nccn5n4)c[nH]c3n2)C1 [Compound 2053, 5-(Imidazo[1,2-b]pyridazin-6-yl)-N-(cis-3-methoxycyclobutyl)-7H-pyrrolo [2,3-d]pyrimidin-2-amine]"
10,76.3 nM,"CC(C)(F)CNc1ncc2c(-c3cc(F)c4ncnn4c3)c[nH]c2n1 [Compound 774, N-(2-Fluoro-2-methylpropyl)-5-(8-fluoro-[1,2,4]triazolo[1,5-a]pyridin-6-yl)-7H-pyrrolo[2,3-d]pyrimidin-2-amine]"
